In brackets after ≈: the same amount, converted by molar mass. Read-outs that look alike come from different tables or passages of the source.
What was measured:
MCF-7 = test: Antiproliferative MTT assay, MCF-7 breast cancer cells; assay type: cell-based, human
Procedure: (§1) The antiproliferative activities of the cinnamyl and benzodioxyl derivatives were assessed against six human cell lines of three different types of cancer (colon, lung, and breast) using the 3-(4,5-dimethylthiazol-2-yl)-2,5-diphenyltetrazolium bromide (MTT) assay at seven concentrations for 48 h. The results are expressed as the IC50 values and are outlined in Table 1.
(§2) The cell lines were obtained from the American Type Culture Collection (ATCC). All the cancer cell lines (HT-29, HCT-116, H1299, HTB-54, MDA-MB-231 and MCF-7) and the nontumorigenic cells (184B5) were maintained in RPMI 1640 medium (Gibco), supplemented with 10% fetal bovine serum (FBS; Gibco) and 1% antibiotics (10.00 units/mL penicillin and 10.00 mg/mL streptomycin; Gibco). Cells were preserved in tissue culture flasks at 37 °C and 5% CO2. Culture medium was replaced every three days.
(§3) The cytotoxic effect of each compound was initially tested at seven different concentrations ranging between 0.5 and 100 µM in the cell lines mentioned above. The cells were seeded (1 × 10^4 cells per well) in 96-well plates and incubated at 37 °C and 5% CO2 for 24 h. After attachment, cells were treated with either dimethyl sulfoxide (DMSO) or increasing concentrations of the corresponding selenocompound for 48 h. The effect of the compounds on cell viability was determined by the MTT assay. In brief, 20 µL of MTT (5 mg/mL) was added to each well 2.5 h prior to experiment termination. At the end of the incubation, the medium was removed, and the formazan crystals were dissolved in 50 µL of DMSO. Absorbance was measured at 550 nm on a microplate reader. IC50 values were calculated using OriginPro 8.5.1. software by nonlinear curve fitting. Selectivity indexes were calculated as the ratio of the IC50 values determined for the nonmalignant and the tumoral cells in the breast cell lines (IC50 (184B5)/IC50 (MDA-MB-231) and IC50 (184B5)/IC50 (MCF-7)). Data were obtained from at least three independent experiments performed in triplicates.

MDA-MB-231 = test: Antiproliferative MTT assay, MDA-MB-231 breast cancer cells; assay type: cell-based, human
Procedure: as §1, §2, §3

S. faecalis [1] = test: MIC and MBC assay, S. faecalis; assay type: cell-based, Streptococcus faecalis; conditions: for MIC / MBC: Enterococcus faecalis; for MIC: read-out: MIC S. faecalis; for MBC: read-out: MBC S. faecalis
Procedure: (§4) The minimum inhibitory concentration (MIC) and the minimum bactericidal concentration (MBC) values of the selenocompounds were determined in a panel of six bacterial strains as a first approach to assess their antibacterial activity. Thus, the synthesized derivatives were tested against the Gram-negative bacteria Escherichia coli (E. coli), Klebsiella pneumoniae (K. pneumoniae) and Citrobacter freundii (C. freundii); and the Gram-positive bacteria Staphylococcus aureus (S. aureus), Streptococcus faecalis (S. faecalis), and Staphylococcus epidermidis (S. epidermidis). […]
(§5) All the selenocompounds were screened for their in vitro inhibitory activity against three Gram-negative (E. coli, K. pneumoniae and C. freundii) and three Gram-positive (S. aureus, S. faecalis and S. epidermidis) bacteria. Bacterial strains were kindly provided by the Department of Microbiology and Parasitology of the University of Navarra. The bacterial cells were grown in tryptic soy agar (TSA) plates and maintained at 4 °C.
(§6) The compounds were firstly dissolved in DMSO and serially diluted in a 96-well plate in tryptic soy broth (TSB) with eleven concentrations ranging from 400 µg/mL to 0.4 µg/mL with a final volume of 100 µL. Subsequently, 100 µL of a diluted suspension of bacterial cells with an optical density of 0.125 measured at 600 nm in TSB (inoculum of approximately 10^5 CFU/mL) was added to each well and incubated at 37 °C for 24 h. After the incubation period, each well was analyzed for the presence or absence of visual growth of bacterial cells. The lowest concentration of the test compound at which no visible growth occurred was determined as the MIC values. After incubation, 10 µL of the bacterial suspension from each well that presented antibacterial activity was added to divided TSA plates and incubated at 37 °C overnight.

K. pneumoniae [2] = test: MIC and MBC assay, K. pneumoniae; assay type: cell-based, Klebsiella pneumoniae; conditions: for MIC / MBC: Klebsiella pneumoniae; for MIC: read-out: MIC K. pneumoniae; for MBC: read-out: MBC K. pneumoniae
Procedure: as §4, §5, §6

H1299 = test: Antiproliferative MTT assay, H1299 lung cancer cells; assay type: cell-based, human
Procedure: as §1, §2, §3

HCT-116 = test: Antiproliferative MTT assay, HCT-116 colon cancer cells; assay type: cell-based, human
Procedure: as §1, §2, §3

E. coli = test: Growth curve study, E. coli; assay type: cell-based, Escherichia coli; conditions: for Bacterial growth of E. coli at 2MIC: highest concentration tested (2MIC), up to 48 h; for Lag phase (delay in bacterial growth), E. coli: lowest concentration evaluated (MIC/2)
Procedure: (§7) To further examine the inhibitory effect of the moderately active compounds 1a and 2a on the growth of the six bacterial strains tested, growth kinetic studies were performed. Thus, the six bacterial strains were exposed to three different concentrations of the test compounds using the MIC values (Table 4) as reference (2MIC, MIC, and MIC/2), while untreated cells were used as negative control. The bacterial growth was recorded by measuring the absorbance at several time points.
(§8) A stock solution of selected compounds 1a and 2a was prepared in DMSO, and different concentrations equivalent to 2MIC, MIC, and MIC/2 in TSB of each compound were dispensed into a 96-well plate with a final volume of 100 µL, while only TSB was added for the control wells. Then, 100 µL of a diluted suspension of bacterial cells in TSB with an optical density of 0.125 measured at 600 nm (inoculum of approximately 10^5 CFU/mL) was added to each well, and the incubation was monitored by spectrophotometric measurements. The absorbance was recorded at 600 nm against time (h) at predetermined periods on a microplate reader. The experiments were performed in triplicate.

S. epidermidis = test: Growth curve study, S. epidermidis; assay type: cell-based, Staphylococcus epidermidis; conditions: for Bacterial growth of S. epidermidis at sub-MIC concentration: 6.25 µg/mL; for Bacterial growth of S. epidermidis at 2MIC: highest concentration tested (2MIC), up to 48 h
Procedure: as §7, §8

S. faecalis [3] = test: Growth curve study, S. faecalis; assay type: cell-based, Streptococcus faecalis; conditions: for Bacterial growth of S. faecalis at 2MIC: highest concentration tested (2MIC), up to 48 h
Procedure: as §7, §8

S. aureus = test: Growth curve study, S. aureus; assay type: cell-based, Staphylococcus aureus; conditions: for Bacterial growth of S. aureus at 2MIC: highest concentration tested (2MIC), up to 48 h
Procedure: as §7, §8

C. freundii = test: Growth curve study, C. freundii; assay type: cell-based, Citrobacter freundii; conditions: for Bacterial growth of C. freundii at 2MIC: highest concentration tested (2MIC), up to 48 h
Procedure: as §7, §8

K. pneumoniae [4] = test: Growth curve study, K. pneumoniae; assay type: cell-based, Klebsiella pneumoniae; conditions: for Bacterial growth of K. pneumoniae at 2MIC: highest concentration tested (2MIC), up to 48 h
Procedure: as §7, §8

[5] = MTT assay, 48 h, mean ± SD, read-out: IC50 MCF-7
[6] = MTT assay, 48 h, mean ± SD, read-out: IC50 MDA-MB-231
[7] = MTT assay, 48 h, mean ± SD, read-out: IC50 H1299
[8] = MTT assay, 48 h, mean ± SD, read-out: IC50 HCT-116
[9] = Homo sapiens, MCF7, MTT assay, 48 h, mean ± SD, read-out: IC50 MCF-7
[10] = Homo sapiens, MDA-MB-231, MTT assay, 48 h, mean ± SD, read-out: IC50 MDA-MB-231
[11] = Homo sapiens, NCI-H1299, 48 h, MTT assay, 48 h, mean ± SD, read-out: IC50 H1299
[12] = Homo sapiens, HCT-116, 48 h, MTT assay, 48 h, mean ± SD, read-out: IC50 HCT-116
[13] = lowest concentration tested, 12.5 µg/mL

Row | SMILES | IC50 (MCF-7; [5]) [µM] | IC50 (MDA-MB-231; [6]) [µM] | MIC S. faecalis (S. faecalis [1]; Gram-positive, 24 h at 37 °C) [µg/mL] | MIC K. pneumoniae (K. pneumoniae [2]; Gram-negative, 24 h at 37 °C) [µg/mL] | IC50 (H1299; [7]) [µM] | IC50 (HCT-116; [8]) [µM] | Bacterial growth of E. coli at 2MIC (E. coli) | Lag phase (delay in bacterial growth), E. coli (E. coli) [h] | MBC S. faecalis (S. faecalis [1]; Gram-positive) | melting point [°C] | Bacterial growth of S. epidermidis at sub-MIC concentration (S. epidermidis) | Bacterial growth of S. epidermidis at 2MIC (S. epidermidis) | Bacterial growth of S. faecalis at 2MIC (S. faecalis [3]) | Bacterial growth of S. aureus at 2MIC (S. aureus) | Bacterial growth of C. freundii at 2MIC (C. freundii) | Bacterial growth of K. pneumoniae at 2MIC (K. pneumoniae [4]) | IC50 (MCF-7; [9]) [µM] | IC50 (MDA-MB-231; [10]) [µM] | MIC (S. faecalis [1]; Gram-positive, 24 h at 37 °C) [µg/mL] | MIC (K. pneumoniae [2]; Gram-negative, 24 h at 37 °C) [µg/mL] | other results
1 | O=C(CC[Se]Cc1ccc2c(c1)OCO2)[c-]1cccc1.[Fe+2].c1cc[cH-]c1 [Compound 2c, 3-((Benzo[d][1,3]dioxol-5-ylmethyl)selanyl)-1-ferrocenylpropan-1-one] | 14.8 ± 4.3 | 30.9 ± 1.3 | >200 | >200 | 45.2 ± 7.2 | > 100 | – | – | – | – | – | – | – | – | – | – | – | – | – | – | –
2 | N#C[Se]C/C=C/c1ccccc1 [Compound 1a, (E)-(3-selenocyanatoprop-1-en-1-yl)benzene] | – | – | – | – | – | – | no bacterial growth was detected | 41 | no bactericidal effect was observed | 87 to 89 | a delay could be observed | no bacterial growth was detected | no bacterial growth was detected | no bacterial growth was detected | no bacterial growth was detected | no bacterial growth was detected | – | – | – | – | IC50 (MCF-7; Homo sapiens, MCF7, 48 h, read-out: IC50 MCF-7, MTT assay, 48 h, mean ± SD): > 50 µM; IC50 (MCF-7; read-out: IC50 MCF-7, MTT assay, 48 h, mean ± SD): 55 ± 2.3 µM; IC50 (MDA-MB-231; Homo sapiens, MDA-MB-231, 48 h, read-out: IC50 MDA-MB-231, MTT assay, 48 h, mean ± SD): > 50 µM; IC50 (MDA-MB-231; read-out: IC50 MDA-MB-231, MTT assay, 48 h, mean ± SD): 71 ± 10.3 µM; MIC (S. faecalis [1]; 24 h): 50 µg/mL (≈ 225 µM); MBC (S. faecalis [1]): > 200 µg/mL; MIC (K. pneumoniae [2]; 24 h): 100 µg/mL (≈ 450 µM); MBC (K. pneumoniae [2]): 100 µg/mL (≈ 450 µM); IC50 (H1299; Homo sapiens, NCI-H1299, 48 h, read-out: IC50 H1299, MTT assay, 48 h, mean ± SD): > 50 µM; IC50 (H1299; read-out: IC50 H1299, MTT assay, 48 h, mean ± SD): 82.5 ± 5.9 µM; IC50 (HCT-116; Homo sapiens, HCT-116, 48 h, read-out: IC50 HCT-116, MTT assay, 48 h, mean ± SD): > 50 µM; IC50 (HCT-116; read-out: IC50 HCT-116, MTT assay, 48 h, mean ± SD): 68.8 ± 6.3 µM; Bacterial growth of K. pneumoniae at the concentrations tested (K. pneumoniae [4]; 2MIC, MIC and MIC/2): no growth was detected
3 | N#C[Se]Cc1ccc2c(c1)OCO2 [Compound 2a, 5-(Selenocyanatomethyl)benzo[d][1,3]dioxole] | – | – | ≤ 25 | – | 11.9 ± 3.7 | – | no bacterial growth was detected | 10 | no bactericidal effect was observed | 71 to 73 | a delay could be observed | no bacterial growth was detected | no bacterial growth was detected | no bacterial growth was detected | no bacterial growth was detected | no bacterial growth was detected | 59.3 ± 6.5 | 43.8 ± 5.7 | 25 (≈ 104 µM) | 50 (≈ 208 µM) | MBC (S. faecalis [1]; Gram-positive): > 200 µg/mL; MBC (K. pneumoniae [2]; Gram-negative): 50 µg/mL (≈ 208 µM); IC50 (H1299; [11]): < 12 µM; IC50 (HCT-116; [12]): 69.7 ± 5.3 µM; Bacterial growth of S. faecalis at MIC/2 (S. faecalis [3]; [13]): exponential growth of bacteria was observed; Delay in the bacterial growth, S. aureus (S. aureus; MIC concentration (25 µg/mL)): 44 h; Bacterial growth of S. aureus at MIC/2 (S. aureus; [13]): exponential growth of bacteria was observed; Log phase, C. freundii (C. freundii; lowest concentration (50 µg/mL)): 43 h; Log phase before bacterial growth, K. pneumoniae (K. pneumoniae [4]; 25 µg/mL): 28 h; Log phase before bacterial growth, K. pneumoniae (K. pneumoniae [4]; 50 µg/mL): 42 h
4 | C(=C\c1ccccc1)/C[Se][Se]C/C=C/c1ccccc1 [Compound 1b, 1,2-Dicinnamyldiselenide] | – | – | – | – | 28.7 ± 2.6 | 36.6 ± 6.7 | – | – | – | – | – | – | – | – | – | – | > 100 | 56.3 ± 5.3 | > 200 | > 200 | IC50 (H1299; [11]): < 40 µM; IC50 (HCT-116; [12]): < 40 µM
5 | O=C(CC[Se]CC=Cc1ccccc1)[c-]1cccc1.[Fe+2].c1cc[cH-]c1 [Compound 1c, 3-(Cinnamylselanyl)-1-ferrocenylpropan-1-one] | 18.5 ± 5.4 | 32.1 ± 3 | >200 | >200 | 70.6 ± 6.6 | > 100 | – | – | – | – | – | – | – | – | – | – | – | – | – | – | –
